Values quoted from earlier work as cited in patent publication US9402788B2, “Manufacture of multiple minicapsules” (Sigmoid Pharma Ltd., priority 2007, dated 2016).
Structures can show the parent of a compound that is named as a salt.

Experiments:
[1] = HME film, clotrimazole 10% w/w
[2] = after extrusion with EC/HM polymers; HPLC

Clc1ccccc1C(c1ccccc1)(c1ccccc1)n1ccnc1 [clotrimazole]
duration of prolonged release [1]: 10 h | duration of zero-order release [1]: 6 h

CC(C)Cc1ccc(C(C)C(=O)O)cc1 (centres unmarked) [ibuprofen]
ibuprofen amount remained after extrusion [2]: 98.9%

CC(C)NCC(O)COc1cccc2ccccc12 (centres unmarked) [propranolol HCl]
aqueous solubility: 50 mg/mL

Cn1c(=O)c2[nH]cnc2n(C)c1=O.O [theophylline monohydrate]
aqueous solubility: 8.33 mg/mL
